Experiments:
[1] = molecular target: T1, pseudo-kinase domain (JH2, amino-acids 536-812) of human V617F mutant JAK2 (Homo sapiens, UniProt O60674, F794H/V617F/W659A/W777A); assay: JAK2 LanthaScreen JH2-V617F Binding Assay; conditions: JAK2 JH2-V617F 0.26 nM, 50 nM tracer, 1 hour at 25° C.; read-out: JH2 BIND V617F
T1 construct: pseudo-kinase domain (JH2, amino-acids 536-812 with 3 surface mutations W659A, W777A, F794H); His (C); purchased BPS Bioscience 79498; host or cells: baculovirus expression system
Procedure: Example C. JAK2 LanthaScreen JH2-V617F Binding Assay
JAK2 JH2-V617F binding assay utilizes pseudo-kinase domain (JH2, amino-acids 536-812 with 3 surface mutations W659A, W777A, F794H) of human V617F mutant JAK2 expressed as C-terminal His-Avi-tagged, biotinylated protein in a baculovirus expression system (BPS Bioscience, Catalog #79498). The assay was conducted in black 384-well polystyrene plates in a final reaction volume of 20 μL. JAK2 JH2-V617F (0.26 nM) was incubated with compounds (100 nL serially diluted in DMSO) in the presence of 50 nM Fluorescent JAK2-JH2 Tracer (MedChem Express Catalog #HY-102055) and 0.25 nM Streptavidin-Tb cryptate (Cisbio Part #610SATLB) in assay buffer (50 mM Tris, pH=7.5, 10 mM MgCl2, 0.01% Brij-35, 0.1% BSA, 1 mM EGTA, 5% Glycerol and 5 mM DTT). Non-specific binding was accessed in the presence of 2 mM ATP. After incubation for 1 hour at 25° C., LanthaScreen signals were read on a PHERAstar FS plate reader (BMG LABTECH). Data was analyzed with IDBS XLfit and GraphPad Prism 5.0 software using a four parameter dose response curve to determine IC50 for each compound.

[2] = molecular target: catalytic domain (JH1, amino acids 808-1132) of human JAK2 (Homo sapiens, UniProt O60674); assay: JAK2 HTRF Enzyme Activity Assay; assay type: biochemical; conditions: ATP 30 µM, 60 minutes at 25° C.; read-out: V617F ENZ 30 UM
Chain of catalytic domain (JH1, amino acids 808-1132) of human JAK2 (O60674 808-1132 limits assumed): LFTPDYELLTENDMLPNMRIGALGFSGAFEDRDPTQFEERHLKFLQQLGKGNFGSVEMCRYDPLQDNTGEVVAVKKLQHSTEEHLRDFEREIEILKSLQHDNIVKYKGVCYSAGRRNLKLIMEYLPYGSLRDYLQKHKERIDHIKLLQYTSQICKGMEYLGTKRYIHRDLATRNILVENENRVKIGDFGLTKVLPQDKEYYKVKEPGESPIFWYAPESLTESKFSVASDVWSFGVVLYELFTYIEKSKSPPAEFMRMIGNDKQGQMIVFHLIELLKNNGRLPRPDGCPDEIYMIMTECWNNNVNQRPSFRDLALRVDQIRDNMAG

T1 sequence (O60674 536-812 V617F/W659A/W777A/F794H): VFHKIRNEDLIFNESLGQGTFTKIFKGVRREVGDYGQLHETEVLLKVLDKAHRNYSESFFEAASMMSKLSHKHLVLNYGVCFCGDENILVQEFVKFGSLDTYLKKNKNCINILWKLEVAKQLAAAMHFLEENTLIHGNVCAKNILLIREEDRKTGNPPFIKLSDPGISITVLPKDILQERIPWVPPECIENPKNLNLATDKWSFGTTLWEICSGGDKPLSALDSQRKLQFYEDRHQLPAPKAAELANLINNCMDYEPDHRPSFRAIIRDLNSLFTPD

With `[2H]C1(NC(=O)OC)CC[C@@H](n2c(=O)n(C([2H])([2H])[2H])c3cnc(Nc4ccc5c(n4)c(-c4cnn(C(F)(F)F)c4)nn5CC(C)(C)O)cc32)C1` (single isomer, unassigned) [Example 124] the IC50 [1] was ≤ 10 nM and the IC50 [2] was > 1000 nM.

In the case of `[2H]C1(NC(=O)OC)CC[C@@H](n2c(=O)n(C([2H])([2H])[2H])c3cnc(Nc4ccc5c(n4)c(-c4cnn(C(F)(F)F)c4)nn5CC(C)(C)O)cc32)C1` (single isomer, unassigned) [Example 125], the IC50 [1] is reported as ≤ 10 nM and the IC50 [2] is reported as > 1000 nM.

`[2H]C([2H])([2H])n1c(=O)n([C@@H]2CC[C@@H](NC(=O)OC)C2)c2cc(Nc3ccc4c(n3)c(-c3cnn(C(F)(F)F)c3)cn4C3CCOCC3)ncc21` [Example 109, Methyl ((1R,3R)-3-(3-(methyl-d3)-2-oxo-6-((1-(tetrahydro-2H-pyran-4-yl)-3-(1-(trifluoromethyl)-1H-pyrazol-4-yl)-1H-pyrrolo[3,2-b]pyridin-5-yl)amino)-2,3-dihydro-1H-imidazo[4,5-c]pyridin-1-yl)cyclopentyl)carbamate] was tested, and the IC50 [1] was ≤ 10 nM and the IC50 [2] was > 1000 nM.

With `[2H]C([2H])([2H])n1c(=O)n([C@@H]2CC[C@@H](NC(=O)OC)C2)c2cc(Nc3ccc4c(n3)c(-c3cnn(C(F)(F)F)c3)cn4CC(C)(C)O)ncc21` [Example 110, Methyl ((1R,3R)-3-(6-((1-(2-hydroxy-2-methylpropyl)-3-(1-(trifluoromethyl)-1H-pyrazol-4-yl)-1H-pyrrolo[3,2-b]pyridin-5-yl)amino)-3-(methyl-d3)-2-oxo-2,3-dihydro-1H-imidazo[4,5-c]pyridin-1-yl)cyclopentyl)carbamate] the IC50 [1] was ≤ 10 nM and the IC50 [2] was > 1000 nM.

In the case of `[2H]C1(NC(=O)OC)CC[C@@H](n2c(=O)n(C([2H])([2H])[2H])c3cnc(Nc4ccc5c(n4)c(-c4cnn(C(F)(F)F)c4)cn5C4CCOCC4)cc32)C1` (stereo partly drawn) [Example 111, Methyl ((3R)-3-(3-(methyl-d3)-2-oxo-6-((1-(tetrahydro-2H-pyran-4-yl)-3-(1-(trifluoromethyl)-1H-pyrazol-4-yl)-1H-pyrrolo[3,2-b]pyridin-5-yl)amino)-2,3-dihydro-1H-imidazo[4,5-c]pyridin-1-yl)cyclopentyl-1-d)carbamate], the IC50 [1] is reported as ≤ 10 nM and the IC50 [2] is reported as > 1000 nM.

`[2H]C1(NC(=O)OC)CC[C@@H](n2c(=O)n(C([2H])([2H])[2H])c3cnc(Nc4ccc5c(n4)c(-c4cnn(C(F)(F)F)c4)cn5C4([2H])CCOCC4)cc32)C1` (stereo partly drawn) [Example 112, Methyl ((3R)-3-(3-(methyl-d3)-2-oxo-6-((1-(tetrahydro-2H-pyran-4-yl-4-d)-3-(1-(trifluoromethyl)-1H-pyrazol-4-yl)-1H-pyrrolo[3,2-b]pyridin-5-yl)amino)-2,3-dihydro-1H-imidazo[4,5-c]pyridin-1-yl)cyclopentyl-1-d)carbamate] was tested, and the IC50 [1] was ≤ 10 nM and the IC50 [2] was > 1000 nM.

`[2H]C1(NC(=O)OC)CC[C@@H](n2c(=O)n(C([2H])([2H])[2H])c3cnc(Nc4ccc5c(n4)c(-c4cnn(C(F)(F)F)c4)cn5C4(C#N)CC4)cc32)C1` (stereo partly drawn) [Example 113, Methyl ((3R)-3-(6-((1-(1-cyanocyclopropyl)-3-(1-(trifluoromethyl)-1H-pyrazol-4-yl)-1H-pyrrolo[3,2-b]pyridin-5-yl)amino)-3-(methyl-d3)-2-oxo-2,3-dihydro-1H-imidazo[4,5-c]pyridin-1-yl)cyclopentyl-1-d)carbamate] was tested, and the IC50 [1] was ≤ 10 nM and the IC50 [2] was > 1000 nM.

`[2H]C([2H])([2H])n1c(=O)n([C@@H]2CC[C@](C)(NC(=O)C3CC3)C2)c2cc(Nc3ccc4nn([C@H]5C[C@@H](O)C5)c(-c5cnn(C(F)(F)F)c5)c4n3)ncc21` [Example 121, N-((1S,3R)-3-(6-((2-((1s,3s)-3-Hydroxycyclobutyl)-3-(1-(trifluoromethyl)-1H-pyrazol-4-yl)-2H-pyrazolo[4,3-b]pyridin-5-yl)amino)-3-(methyl-d3)-2-oxo-2,3-dihydro-1H-imidazo[4,5-c]pyridin-1-yl)-1-methylcyclopentyl)cyclopropanecarboxamide] was tested, and the IC50 [1] was ≤ 10 nM and the IC50 [2] was > 1000 nM.

`[2H]C([2H])([2H])n1c(=O)n([C@@H]2CC[C@@H](NC(=O)OC)C2)c2cc(Nc3ccc4nn(CC(C)(C)O)c(-c5cnn(C(F)(F)F)c5)c4n3)ncc21` [Example 122, Methyl ((1R,3R)-3-(6-((2-(2-hydroxy-2-methylpropyl)-3-(1-(trifluoromethyl)-1H-pyrazol-4-yl)-2H-pyrazolo[4,3-b]pyridin-5-yl)amino)-3-(methyl-d3)-2-oxo-2,3-dihydro-1H-imidazo[4,5-c]pyridin-1-yl)cyclopentyl)carbamate] was tested, and the IC50 [1] was ≤ 10 nM and the IC50 [2] was > 1000 nM.

In the case of `[2H]C([2H])([2H])n1c(=O)n([C@@H]2CC[C@](C)(NC(=O)C3CC3)C2)c2cc(Nc3ccc4nn(CC(C)(C)O)c(-c5cnn(C(F)(F)F)c5)c4n3)ncc21` [Example 123, N-((1S,3R)-3-(6-((2-(2-Hydroxy-2-methylpropyl)-3-(1-(trifluoromethyl)-1H-pyrazol-4-yl)-2H-pyrazolo[4,3-b]pyridin-5-yl)amino)-3-(methyl-d3)-2-oxo-2,3-dihydro-1H-imidazo[4,5-c]pyridin-1-yl)-1-methylcyclopentyl)cyclopropanecarboxamide], the IC50 [1] is reported as ≤ 10 nM and the IC50 [2] is reported as > 1000 nM.

`[2H]C([2H])([2H])n1c(=O)n([C@H]2CC[C@@](C)(NC(=O)C3CC3)CC2)c2cc(Nc3ccc4c(n3)c(-c3cnn(C(F)(F)F)c3)nn4[C@H]3CC[C@H](O)CC3)ncc21` [Example 126, N-((1s,4s)-4-(6-((1-((1r,4r)-4-Hydroxycyclohexyl)-3-(1-(trifluoromethyl)-1H-pyrazol-4-yl)-1H-pyrazolo[4,3-b]pyridin-5-yl)amino)-3-(methyl-d3)-2-oxo-2,3-dihydro-1H-imidazo[4,5-c]pyridin-1-yl)-1-methylcyclohexyl)cyclopropanecarboxamide] was tested, and the IC50 [1] was ≤ 10 nM and the IC50 [2] was > 1000 nM.

With `[2H]C([2H])([2H])n1c(=O)n([C@H]2CC[C@@](C)(NC(=O)C3CC3)CC2)c2cc(Nc3cc(C(=O)N4CCOCC4)c4nn(C)c(-c5cnn(C(F)(F)F)c5)c4n3)ncc21` [Example 127, N-((1s,4s)-1-Methyl-4-(3-(methyl-d3)-6-((2-methyl-7-(morpholine-4-carbonyl)-3-(1-(trifluoromethyl)-1H-pyrazol-4-yl)-2H-pyrazolo[4,3-b]pyridin-5-yl)amino)-2-oxo-2,3-dihydro-1H-imidazo[4,5-c]pyridin-1-yl)cyclohexyl)cyclopropanecarboxamide] the IC50 [1] was ≤ 10 nM and the IC50 [2] was > 1000 nM.

With `[2H]C([2H])([2H])n1c(=O)n([C@@H]2CC[C@](C)(NC(=O)OC)C2)c2cc(Nc3ccc4c(n3)c(-c3cnn(C(F)(F)F)c3)nn4CC(C)(C)O)ncc21` [Example 128, Methyl ((1S,3R)-3-(6-((1-(2-hydroxy-2-methylpropyl)-3-(1-(trifluoromethyl)-1H-pyrazol-4-yl)-1H-pyrazolo[4,3-b]pyridin-5-yl)amino)-3-(methyl-d3)-2-oxo-2,3-dihydro-1H-imidazo[4,5-c]pyridin-1-yl)-1-methylcyclopentyl)carbamate] the IC50 [1] was ≤ 10 nM and the IC50 [2] was > 1000 nM.

`[2H]C([2H])([2H])n1c(=O)n([C@@H]2CC[C@](C)(NC(C)=O)C2)c2cc(Nc3ccc4c(n3)c(-c3cnn(C(F)(F)F)c3)nn4CC(C)(C)O)ncc21` [Example 129, N-((1S,3R)-3-(6-((1-(2-Hydroxy-2-methylpropyl)-3-(1-(trifluoromethyl)-1H-pyrazol-4-yl)-1H-pyrazolo[4,3-b]pyridin-5-yl)amino)-3-(methyl-d3)-2-oxo-2,3-dihydro-1H-imidazo[4,5-c]pyridin-1-yl)-1-methylcyclopentyl)acetamide] was tested, and the IC50 [1] was ≤ 10 nM and the IC50 [2] was > 1000 nM.

For `[2H]C1(NC(=O)OC)CC[C@@H](n2c(=O)n(C([2H])([2H])[2H])c3cnc(Nc4cc(C(C)(C)O)c5[nH]cc(-c6cnn(C(F)(F)F)c6)c5n4)cc32)C1` (stereo partly drawn) [Example 130, Methyl ((3R)-3-(6-((7-(2-hydroxypropan-2-yl)-3-(1-(trifluoromethyl)-1H-pyrazol-4-yl)-1H-pyrrolo[3,2-b]pyridin-5-yl)amino)-3-(methyl-d3)-2-oxo-2,3-dihydro-1H-imidazo[4,5-c]pyridin-1-yl)cyclopentyl-1-d)carbamate], the IC50 [1] was ≤ 10 nM and the IC50 [2] was > 1000 nM.

For `[2H]C1(NC(=O)OC)CC[C@@H](n2c(=O)n(C([2H])([2H])[2H])c3cnc(Nc4cc(C(C)(C)O)c5ccn(-c6cnn(C(F)(F)F)c6)c5n4)cc32)C1` (stereo partly drawn) [Example 131, Methyl ((3R)-3-(6-((4-(2-hydroxypropan-2-yl)-1-(1-(trifluoromethyl)-1H-pyrazol-4-yl)-1H-pyrrolo[2,3-b]pyridin-6-yl)amino)-3-(methyl-d3)-2-oxo-2,3-dihydro-1H-imidazo[4,5-c]pyridin-1-yl)cyclopentyl-1-d)carbamate], the IC50 [1] was ≤ 10 nM and the IC50 [2] was > 1000 nM.

— US20240317744A1, “Bicyclic Ureas As Kinase Inhibitors” (Incyte Corporation, priority 2023, published 2024)
